{
  "source": "paper PMC10590383",
  "about": "“Repurposing conformational changes in ANL superfamily enzymes to rapidly generate biosensors for organic and amino acids” (Nature Communications, 2023)",
  "key": {"[1]": {"experiment": "Dose–response curve of purified GECFINDERs with leucine", "type": "biochemical", "description": "(§1) Fig. 4 Engineering ligand specificity of GrsA-PheA for generating […]s. a The selectivity-conferring code of Phe and Leu A domains. b–f Dose–response curve of purified […]s with increasing concentrations of ligands in 100 mM Tris-HCl buffer (pH=7.5). All data shown are means ± S.D. (n = 3 biologically independent samples). g A series of […] reactions was tested to show the […]’s specificity with 20 proteinogenic amino acids. The values on the heatmap represent the ΔF/F0 value normalized to each […]’s maximal ΔF/F0 value ((ΔF/F0)/maximal ΔF/F0). The concentrations of 20 amino acids were 100 μM. The color indicates the average value of three independent biological replicates after 15 min. All data shown are means ± S.D. (n = 3 biologically independent samples). Source data are provided as a Source data file.\n(§2) The study conducted dose–response curve, substrate specificity, and fluorescent spectrum analyses in 100-mM Tris buffer (pH = 7.5), while pH stability experiments were performed in 100-mM Tris buffer at three different pH values (6.5, 7.5, and 8.5) at room temperature. […] protein at a concentration of 0.75 μM, various small molecule concentrations, 1 mM ATP, and 2.5 mM MgCl2 were used in the experiments. Fluorescent signals were detected using a Microplate Reader (Synergy H4, Bio Tek) at an excitation/emission wavelength of 460 nm/510 nm or 480 nm/510 nm. The dose-response curve was determined immediately after the addition of the analyte. The total duration of the measurement was 15 min, with readings taken at one-minute intervals. The dose-response curve was plotted using the fluorescence values obtained after achieving stability in the fluorescence signal. The dose-response curves were fitted using the logistic model LOGISTIC5 available in Origin 2021, which could provide a more adequate fit to asymmetric dose-response data[62],[63]. Excitation spectra were scanned from 300 to 540 nm with a step size of 5 nm, and the emission wavelength was set to 560 nm. Emission spectra were scanned from 470 to 700 nm with a step size of 5 nm, and the excitation wavelength was set to 450 nm. The thermal stability of […] was analyzed using the UNcle multifunctional protein stability analysis system. Measurements were performed in 20 mM MOPS buffer with 2 mM DTT at a sample concentration of 1 mg/mL. Absolute fluorescence quantum yields were measured using an absolute photoluminescence quantum yield spectrometer (FS5, Edinburgh)."}, "[2]": {"experiment": "Substrate (ligand) specificity of […]s", "type": "biochemical", "description": "as §1\nLigand specificity is an important biosensors feature. Generally, the NRPS A domains have high specificity for their substrates because they are the first “gatekeeper” of NRPSs and ensure that the correct monomers are activated and thioesterified[32],[33]. Therefore, we speculated that this property would be inherited by our […]s because the ligand-binding pockets were unchanged during the […] creation process. Twenty proteinogenic amino acids were used to test the ligand specificity of […]s. […] We also investigated the dependence of […]s on Mg^2+ and ATP (Supplementary Fig. 4). […] This phenomenon corroborates with the distinct conformational changes observed in Hinge A of Nt4CL2 (Mg^2++ATP) (PDB ID: 5BSM) and Nt4CL2 (Coumaroyl-AMP) (PDB ID: 5BST) reported in the literature (Supplementary Fig. 4k), where the direction of motion in hinge A differs. […] During the determination of quantum yield, we observed that the absolute quantum yield of the […] variants ranged from 0.3 to 0.6 upon addition of the respective substrates, which show no significant difference with that reported in literature. The specific values are provided in Supplementary Table 2.\nas §2"}},
  "data": [
    {"molecule": "CC(C)C[C@H](N)C(=O)O", "note": "[Leu]", "values": [
      {"measurement": "AVE, dose-response Fig. 4 b", "setting": "[1]; substrate Leu 0.001 μM", "value": "-7.112e-17"},
      {"measurement": "AVE, dose-response Fig. 4 b", "setting": "[1]; substrate Leu 0.005 μM", "value": 0.003877},
      {"measurement": "AVE, dose-response Fig. 4 b", "setting": "[1]; substrate Leu 0.01 μM", "value": 0.02311},
      {"measurement": "AVE, dose-response Fig. 4 b", "setting": "[1]; substrate Leu 0.05 μM", "value": 0.04234},
      {"measurement": "AVE, dose-response Fig. 4 b", "setting": "[1]; substrate Leu 0.1 μM", "value": 0.03637},
      {"measurement": "AVE, dose-response Fig. 4 b", "setting": "[1]; substrate Leu 0.5 μM", "value": 0.02815},
      {"measurement": "AVE, dose-response Fig. 4 b", "setting": "[1]; substrate Leu 1 μM", "value": 0.02962},
      {"measurement": "AVE, dose-response Fig. 4 b", "setting": "[1]; substrate Leu 5 μM", "value": 0.0138},
      {"measurement": "AVE, dose-response Fig. 4 b", "setting": "[1]; substrate Leu 10 μM", "value": 0.1049},
      {"measurement": "AVE, dose-response Fig. 4 b", "setting": "[1]; substrate Leu 25 μM", "value": 0.1731},
      {"measurement": "AVE, dose-response Fig. 4 b", "setting": "[1]; substrate Leu 50 μM", "value": 0.2052},
      {"measurement": "AVE, dose-response Fig. 4 b", "setting": "[1]; substrate Leu 100 μM", "value": 0.2136},
      {"measurement": "AVE, dose-response Fig. 4 c", "setting": "[1]; substrate Leu 0.5 μM", "value": "6.794e-17"},
      {"measurement": "AVE, dose-response Fig. 4 c", "setting": "[1]; substrate Leu 1 μM", "value": 0.0405},
      {"measurement": "AVE, dose-response Fig. 4 c", "setting": "[1]; substrate Leu 2 μM", "value": 0.06186},
      {"measurement": "AVE, dose-response Fig. 4 c", "setting": "[1]; substrate Leu 5 μM", "value": 0.1266},
      {"measurement": "AVE, dose-response Fig. 4 c", "setting": "[1]; substrate Leu 10 μM", "value": 0.1121},
      {"measurement": "AVE, dose-response Fig. 4 c", "setting": "[1]; substrate Leu 20 μM", "value": 0.1733},
      {"measurement": "AVE, dose-response Fig. 4 c", "setting": "[1]; substrate Leu 50 μM", "value": 0.2857},
      {"measurement": "AVE, dose-response Fig. 4 c", "setting": "[1]; substrate Leu 100 μM", "value": 0.4006},
      {"measurement": "AVE, dose-response Fig. 4 c", "setting": "[1]; substrate Leu 200 μM", "value": 0.5877},
      {"measurement": "AVE, dose-response Fig. 4 c", "setting": "[1]; substrate Leu 500 μM", "value": 0.7587},
      {"measurement": "AVE, dose-response Fig. 4 c", "setting": "[1]; substrate Leu 750 μM", "value": 0.8241},
      {"measurement": "AVE, dose-response Fig. 4 c", "setting": "[1]; substrate Leu 1000 μM", "value": 0.7953},
      {"measurement": "AVE, dose-response Fig. 4 d", "setting": "[1]; substrate Leu 0.005 μM", "value": "-5.262e-17"},
      {"measurement": "AVE, dose-response Fig. 4 d", "setting": "[1]; substrate Leu 0.01 μM", "value": 0.03426},
      {"measurement": "AVE, dose-response Fig. 4 d", "setting": "[1]; substrate Leu 0.1 μM", "value": 0.06576},
      {"measurement": "AVE, dose-response Fig. 4 d", "setting": "[1]; substrate Leu 1 μM", "value": 0.08826},
      {"measurement": "AVE, dose-response Fig. 4 d", "setting": "[1]; substrate Leu 5 μM", "value": 0.1792},
      {"measurement": "AVE, dose-response Fig. 4 d", "setting": "[1]; substrate Leu 10 μM", "value": 0.2348},
      {"measurement": "AVE, dose-response Fig. 4 d", "setting": "[1]; substrate Leu 50 μM", "value": 0.4576},
      {"measurement": "AVE, dose-response Fig. 4 d", "setting": "[1]; substrate Leu 100 μM", "value": 0.5636},
      {"measurement": "AVE, dose-response Fig. 4 d", "setting": "[1]; substrate Leu 200 μM", "value": 0.7427},
      {"measurement": "AVE, dose-response Fig. 4 d", "setting": "[1]; substrate Leu 500 μM", "value": 0.9952},
      {"measurement": "AVE, dose-response Fig. 4 d", "setting": "[1]; substrate Leu 750 μM", "value": 1.079},
      {"measurement": "AVE, dose-response Fig. 4 d", "setting": "[1]; substrate Leu 1000 μM", "value": 1.107},
      {"measurement": "fluorescence response of GECFINDER, AVE of 3 repeats", "setting": "[1]; Supplementary Fig. 3 a, Leu 0.001 μM", "value": 0},
      {"measurement": "fluorescence response of GECFINDER, AVE of 3 repeats", "setting": "[1]; Supplementary Fig. 3 a, Leu 0.005 μM", "value": 0.02218},
      {"measurement": "fluorescence response of GECFINDER, AVE of 3 repeats", "setting": "[1]; Supplementary Fig. 3 a, Leu 0.01 μM", "value": 0.03478},
      {"measurement": "fluorescence response of GECFINDER, AVE of 3 repeats", "setting": "[1]; Supplementary Fig. 3 a, Leu 0.1 μM", "value": 0.05423},
      {"measurement": "fluorescence response of GECFINDER, AVE of 3 repeats", "setting": "[1]; Supplementary Fig. 3 a, Leu 1 μM", "value": 0.08086},
      {"measurement": "fluorescence response of GECFINDER, AVE of 3 repeats", "setting": "[1]; Supplementary Fig. 3 a, Leu 10 μM", "value": 0.1724},
      {"measurement": "fluorescence response of GECFINDER, AVE of 3 repeats", "setting": "[1]; Supplementary Fig. 3 a, Leu 50 μM", "value": 0.3353},
      {"measurement": "fluorescence response of GECFINDER, AVE of 3 repeats", "setting": "[1]; Supplementary Fig. 3 a, Leu 100 μM", "value": 0.4583},
      {"measurement": "fluorescence response of GECFINDER, AVE of 3 repeats", "setting": "[1]; Supplementary Fig. 3 a, Leu 500 μM", "value": 0.754},
      {"measurement": "fluorescence response of GECFINDER, AVE of 3 repeats", "setting": "[1]; Supplementary Fig. 3 a, Leu 1000 μM", "value": 0.8727},
      {"measurement": "fluorescence response of GECFINDER, AVE of 3 repeats", "setting": "[1]; Supplementary Fig. 3 a, Leu 5000 μM", "value": 1.081},
      {"measurement": "fluorescence response of GECFINDER, AVE of 3 repeats", "setting": "[1]; Supplementary Fig. 3 a, Leu 10000 μM", "value": 0.9665},
      {"measurement": "fluorescence response of GECFINDER, AVE of 3 repeats", "setting": "[1]; Supplementary Fig. 3 b, Leu 0.001 μM", "value": "4.279e-17"},
      {"measurement": "fluorescence response of GECFINDER, AVE of 3 repeats", "setting": "[1]; Supplementary Fig. 3 b, Leu 0.005 μM", "value": 0.01278},
      {"measurement": "fluorescence response of GECFINDER, AVE of 3 repeats", "setting": "[1]; Supplementary Fig. 3 b, Leu 0.01 μM", "value": 0.01795},
      {"measurement": "fluorescence response of GECFINDER, AVE of 3 repeats", "setting": "[1]; Supplementary Fig. 3 b, Leu 0.1 μM", "value": 0.04976},
      {"measurement": "fluorescence response of GECFINDER, AVE of 3 repeats", "setting": "[1]; Supplementary Fig. 3 b, Leu 1 μM", "value": 0.111},
      {"measurement": "fluorescence response of GECFINDER, AVE of 3 repeats", "setting": "[1]; Supplementary Fig. 3 b, Leu 10 μM", "value": 0.3678},
      {"measurement": "fluorescence response of GECFINDER, AVE of 3 repeats", "setting": "[1]; Supplementary Fig. 3 b, Leu 50 μM", "value": 0.7094},
      {"measurement": "fluorescence response of GECFINDER, AVE of 3 repeats", "setting": "[1]; Supplementary Fig. 3 b, Leu 100 μM", "value": 0.9192},
      {"measurement": "fluorescence response of GECFINDER, AVE of 3 repeats", "setting": "[1]; Supplementary Fig. 3 b, Leu 500 μM", "value": 1.615},
      {"measurement": "fluorescence response of GECFINDER, AVE of 3 repeats", "setting": "[1]; Supplementary Fig. 3 b, Leu 1000 μM", "value": 1.882},
      {"measurement": "fluorescence response of GECFINDER, AVE of 3 repeats", "setting": "[1]; Supplementary Fig. 3 b, Leu 5000 μM", "value": 2.296},
      {"measurement": "fluorescence response of GECFINDER, AVE of 3 repeats", "setting": "[1]; Supplementary Fig. 3 b, Leu 10000 μM", "value": 2.333},
      {"measurement": "AVE of Repeat 1-3, sensor signal with ligand (Supplementary Fig. 7 c)", "setting": "[2]; 1 mM ligand, Control AVE 12117.3", "value": 12093},
      {"measurement": "fluorescence response of GECFINDER to each substrate, AVE of 3 repeats", "setting": "[2]; Supplementary Fig. 3 c, substrate specificity", "value": -0.01092}
    ]}
  ]
}
